Data from patent publication US20120283296A1, “PYRROLOPYRAZOLES FOR TREATING CNS DISORDERS” (aFRAXis, Inc., priority 2009, published 2012).
Like-named read-outs stand apart in the source and are kept apart here.

Legend:
Test in all cases: Competitive binding (test PAK inhibitor affinity) assay, phage-displayed kinase vs immobilized staurosporine
[1] = target: PAK1 (Homo sapiens, UniProt Q13153)
[2] = target: PAK2 (Homo sapiens, UniProt Q13177)
[3] = target: PAK4 (Homo sapiens, UniProt O96013)
[4] = target: PAK6 (Homo sapiens, UniProt Q9NQU5)
PAK6, sequence (Q9NQU5 whole entry): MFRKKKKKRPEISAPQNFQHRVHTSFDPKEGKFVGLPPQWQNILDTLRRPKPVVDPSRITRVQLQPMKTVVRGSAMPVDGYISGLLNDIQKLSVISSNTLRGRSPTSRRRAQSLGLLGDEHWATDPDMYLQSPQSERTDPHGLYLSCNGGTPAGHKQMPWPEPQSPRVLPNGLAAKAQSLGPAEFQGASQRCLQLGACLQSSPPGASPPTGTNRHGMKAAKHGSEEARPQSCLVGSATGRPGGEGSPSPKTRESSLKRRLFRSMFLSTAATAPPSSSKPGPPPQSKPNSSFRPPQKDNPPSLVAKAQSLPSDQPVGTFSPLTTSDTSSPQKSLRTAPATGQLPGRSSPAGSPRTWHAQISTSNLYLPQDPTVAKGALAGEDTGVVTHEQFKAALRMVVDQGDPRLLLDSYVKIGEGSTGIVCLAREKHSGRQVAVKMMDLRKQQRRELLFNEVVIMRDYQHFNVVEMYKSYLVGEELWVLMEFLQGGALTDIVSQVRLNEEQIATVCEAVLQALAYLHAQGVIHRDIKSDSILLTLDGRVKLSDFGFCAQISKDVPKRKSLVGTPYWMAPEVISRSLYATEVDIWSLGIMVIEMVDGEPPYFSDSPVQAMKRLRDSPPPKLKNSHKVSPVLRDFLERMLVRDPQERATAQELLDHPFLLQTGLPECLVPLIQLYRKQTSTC

[5] = target: PAK7 (Homo sapiens, UniProt Q9P286)
PAK7, sequence (Q9P286 whole entry): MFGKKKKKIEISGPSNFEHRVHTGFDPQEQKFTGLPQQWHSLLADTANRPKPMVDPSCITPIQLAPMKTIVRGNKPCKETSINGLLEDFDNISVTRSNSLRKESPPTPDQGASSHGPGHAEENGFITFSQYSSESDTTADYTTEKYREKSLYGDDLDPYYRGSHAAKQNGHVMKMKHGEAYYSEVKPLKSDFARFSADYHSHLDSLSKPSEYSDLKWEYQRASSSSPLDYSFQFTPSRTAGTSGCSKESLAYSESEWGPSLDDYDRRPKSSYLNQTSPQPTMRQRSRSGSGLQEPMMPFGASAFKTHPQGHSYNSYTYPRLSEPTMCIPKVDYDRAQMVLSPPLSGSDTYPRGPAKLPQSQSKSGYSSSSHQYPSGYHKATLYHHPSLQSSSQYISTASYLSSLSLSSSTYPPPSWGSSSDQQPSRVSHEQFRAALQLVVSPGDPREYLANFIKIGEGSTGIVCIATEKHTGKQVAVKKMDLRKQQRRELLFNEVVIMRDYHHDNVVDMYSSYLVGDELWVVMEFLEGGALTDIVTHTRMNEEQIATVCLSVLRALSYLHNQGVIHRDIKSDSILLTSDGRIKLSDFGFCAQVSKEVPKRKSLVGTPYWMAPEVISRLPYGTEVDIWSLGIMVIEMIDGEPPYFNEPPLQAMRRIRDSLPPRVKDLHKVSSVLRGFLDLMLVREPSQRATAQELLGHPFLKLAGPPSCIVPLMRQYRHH

PAK1, sequence (Q13153 whole entry): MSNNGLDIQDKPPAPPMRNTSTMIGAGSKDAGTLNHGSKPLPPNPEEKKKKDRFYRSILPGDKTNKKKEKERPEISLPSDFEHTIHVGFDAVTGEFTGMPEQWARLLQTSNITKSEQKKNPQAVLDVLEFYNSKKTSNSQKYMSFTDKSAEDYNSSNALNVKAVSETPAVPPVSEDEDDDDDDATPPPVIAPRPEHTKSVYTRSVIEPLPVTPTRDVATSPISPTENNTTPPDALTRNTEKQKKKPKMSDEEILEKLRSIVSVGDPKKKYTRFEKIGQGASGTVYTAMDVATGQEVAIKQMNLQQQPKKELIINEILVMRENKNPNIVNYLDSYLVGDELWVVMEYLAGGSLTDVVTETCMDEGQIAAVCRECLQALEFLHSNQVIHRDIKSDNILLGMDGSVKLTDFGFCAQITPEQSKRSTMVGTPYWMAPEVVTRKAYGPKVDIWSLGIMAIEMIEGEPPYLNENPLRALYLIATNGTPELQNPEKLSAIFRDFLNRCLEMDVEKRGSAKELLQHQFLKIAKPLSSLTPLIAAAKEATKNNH
PAK2, sequence (Q13177 whole entry): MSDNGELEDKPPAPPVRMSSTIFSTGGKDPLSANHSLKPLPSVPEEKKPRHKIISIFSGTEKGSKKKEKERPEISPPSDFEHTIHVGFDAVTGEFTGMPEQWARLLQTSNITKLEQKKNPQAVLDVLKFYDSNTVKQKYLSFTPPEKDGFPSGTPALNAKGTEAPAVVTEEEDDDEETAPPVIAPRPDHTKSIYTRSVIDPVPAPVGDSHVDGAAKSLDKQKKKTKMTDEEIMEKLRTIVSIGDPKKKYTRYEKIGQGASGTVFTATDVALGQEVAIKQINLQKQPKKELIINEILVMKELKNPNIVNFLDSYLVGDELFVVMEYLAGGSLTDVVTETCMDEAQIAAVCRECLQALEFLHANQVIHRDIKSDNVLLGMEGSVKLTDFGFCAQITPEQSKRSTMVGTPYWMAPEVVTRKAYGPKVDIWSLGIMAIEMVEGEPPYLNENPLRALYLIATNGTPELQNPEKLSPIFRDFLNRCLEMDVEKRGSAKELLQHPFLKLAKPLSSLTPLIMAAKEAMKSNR
PAK4, sequence (O96013 whole entry): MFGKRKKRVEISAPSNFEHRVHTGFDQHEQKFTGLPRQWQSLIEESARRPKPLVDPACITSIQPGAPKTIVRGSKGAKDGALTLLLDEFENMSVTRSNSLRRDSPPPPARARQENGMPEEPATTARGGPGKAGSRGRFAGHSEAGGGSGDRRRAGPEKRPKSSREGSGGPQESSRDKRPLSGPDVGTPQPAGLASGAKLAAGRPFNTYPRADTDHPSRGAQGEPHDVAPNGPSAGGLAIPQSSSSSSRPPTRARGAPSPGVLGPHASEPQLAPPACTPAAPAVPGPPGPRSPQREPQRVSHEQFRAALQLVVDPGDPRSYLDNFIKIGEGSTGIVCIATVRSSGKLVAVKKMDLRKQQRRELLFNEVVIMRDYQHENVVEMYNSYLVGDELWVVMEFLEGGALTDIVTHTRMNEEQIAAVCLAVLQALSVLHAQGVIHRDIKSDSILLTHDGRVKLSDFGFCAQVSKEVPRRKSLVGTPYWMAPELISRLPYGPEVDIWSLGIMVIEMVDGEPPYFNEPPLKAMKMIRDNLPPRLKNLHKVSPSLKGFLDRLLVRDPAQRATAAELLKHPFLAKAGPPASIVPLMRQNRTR

Compound	Kd ([1]; read-out: Kd) [µM]	Kd ([2]; read-out: Kd) [µM]	Kd [3] [µM]	Kd [4] [µM]	Kd [5] [µM]	Kd [1] [µM]	Kd [2] [µM]
CCOc1cc2ncc(C#N)c(Nc3ccc(F)c(Cl)c3)c2cc1NC(=O)/C=C/CN(C)C [EKB-569]	< 5	≥ 10	≥ 10	≥ 10	≥ 10	–	–
Nc1nc(Nc2ccc(S(N)(=O)=O)cc2)nn1C(=O)c1c(F)cccc1F [JNJ-7706621]	–	–	–	< 5	–	≥ 10	≥ 10
